Assay results from patent publication US20260242419A1, “A CYCLIC PEPTIDE FOR TRAPPING INTERLEUKIN-1 BETA” (Merck Sharp & Dohme LLC, priority 2023, published 2026).
pIC50: −log10 of the molar value. Starred links: 1 amine or outer side, 2 acyl side, 3 side chain; linkers in the order of their positions; H or OH if unused. Non-standard residues stand in square brackets, D forms with d. Residues, ends and D or L forms follow the SMILES beside them. dPro(4R-(4-pyridylmethyl)) = O=C(O)[C@H]1C[C@@H](Cc2ccncc2)CN1; Trp(βS-Me,4-F) = C[C@@H](c1c[nH]c2cccc(F)c12)[C@H](N)C(=O)O; Bip(4'-CONH2) = NC(=O)c1ccc(-c2ccc(C[C@H](N)C(=O)O)cc2)cc1; Bip(4'-COOH) = N[C@@H](Cc1ccc(-c2ccc(C(=O)O)cc2)cc1)C(=O)O; Ala(1-bicyclo(1.1.1)pentyl) = N[C@@H](CC12CC(C1)C2)C(=O)O; dPro(3S-(4-F-Bn)) = O=C(O)[C@@H]1NCC[C@@H]1Cc1ccc(F)cc1; X4 = O=C([C@H]1[C@@H](Cc2ccncc2)CCN1[*:1])[*:2]; Ala(pyrimidin-5-yl) = N[C@@H](Cc1cncnc1)C(=O)O; Phe(4-CONH2) = NC(=O)c1ccc(C[C@H](N)C(=O)O)cc1; Phe(4-COOH) = N[C@@H](Cc1ccc(C(=O)O)cc1)C(=O)O; Pro(cis-4-F) = O=C(O)[C@@H]1C[C@H](F)CN1; Ala(4-THP) = N[C@@H](CC1CCOCC1)C(=O)O; AEF = NCCOc1ccc(C[C@H](N)C(=O)O)cc1; Dap(CONH2) = NC(=O)NC[C@H](N)C(=O)O; hTyr = N[C@@H](CCc1ccc(O)cc1)C(=O)O; cisHyp = O=C(O)[C@@H]1C[C@H](O)CN1; d(αMeD) = C[C@@](N)(CC(=O)O)C(=O)O; h4Pal = N[C@@H](CCc1ccncc1)C(=O)O; hPhe = N[C@@H](CCc1ccccc1)C(=O)O; 4Pal = N[C@@H](Cc1ccncc1)C(=O)O; αMeD = C[C@](N)(CC(=O)O)C(=O)O; d(αMeS) = C[C@@](N)(CO)C(=O)O; NMeDab = CN[C@@H](CCN)C(=O)O; Dab = NCC[C@H](N)C(=O)O; Aib = CC(C)(N)C(=O)O; Sar = CNCC(=O)O

molecular target: T1, IL-1β (Homo sapiens, UniProt P01584); experiment: IL-6 assay in MRC5 cells: inhibition of IL-1β induced IL-6 secretion (AlphaLISA); assay type: cell-based; settings: inhibition of IL-1β induced IL-6 secretion in MRC5 cells; read-out: MRC5 IC50
T1 construct: purchased BioLegend 579404
Outline: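 Compound was pre-incubated 1 h at ambient temperature with recombinant human IL-1β at 2λ EC80 before adding human lung fibroblast MRC5 cells (3000/well) in EMEM with 0.025% BSA. After overnight culture at 37 °C, 5% CO2, secreted IL-6 in conditioned medium was measured by AlphaLISA; IC50 from 4-parameter logistic fits.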

T1 sequence (P01584 117-269): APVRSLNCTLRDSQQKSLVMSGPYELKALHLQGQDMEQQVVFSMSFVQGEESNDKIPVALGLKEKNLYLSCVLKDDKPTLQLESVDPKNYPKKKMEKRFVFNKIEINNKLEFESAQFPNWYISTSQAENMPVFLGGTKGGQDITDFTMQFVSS

`C[C@@H](c1c[nH]c2cccc(F)c12)[C@@H]1NC(=O)[C@@H]2C[C@H](O)CN2C(=O)CNC(=O)[C@H](Cc2ccc(C(=O)O)cc2)NC(=O)[C@H](Cc2ccncc2)NC(=O)[C@H](Cc2ccc(-c3ccc(C(=O)O)cc3)cc2)NC(=O)[C@H]2C[C@@H](Cc3ccncc3)CN2C(=O)CN(C)C(=O)[C@H](CCN)NC(=O)[C@H](CCC(N)=O)NC(=O)[C@H](CC2CCOCC2)NC(=O)[C@](C)(CC(=O)O)NC(=O)[C@H](Cc2c[nH]c3ccccc23)NC(=O)[C@H](CO)NC(=O)C(C)(C)NC1=O` [Example 210] (cyclo([Bip(4'-COOH)][4Pal][Phe(4-COOH)]G[cisHyp][Trp(βS-Me,4-F)][Aib]SW[αMeD][Ala(4-THP)]Q[Dab][Sar][dPro(4R-(4-pyridylmethyl))])) and `C[C@@H](c1c[nH]c2cccc(F)c12)[C@@H]1NC(=O)[C@@H]2C[C@H](O)CN2C(=O)CNC(=O)[C@H](Cc2ccc(C(=O)O)cc2)NC(=O)[C@H](Cc2ccncc2)NC(=O)[C@H](Cc2ccc(-c3ccc(C(=O)O)cc3)cc2)NC(=O)[C@H]2C[C@@H](Cc3ccncc3)CN2C(=O)CNC(=O)[C@H](CCN)NC(=O)[C@H](CCC(N)=O)NC(=O)[C@H](CC2CCOCC2)NC(=O)[C@@](C)(CO)NC(=O)[C@H](Cc2c[nH]c3ccccc23)NC(=O)[C@H](CO)NC(=O)C(C)(C)NC1=O` [Example 213] (cyclo([Bip(4'-COOH)][4Pal][Phe(4-COOH)]G[cisHyp][Trp(βS-Me,4-F)][Aib]SW[d(αMeS)][Ala(4-THP)]Q[Dab]G[dPro(4R-(4-pyridylmethyl))])) are within 0.2 log units of each other in pIC50: 10.54 for the first, 10.68 for the second.

`C[C@@H](c1c[nH]c2cccc(F)c12)[C@@H]1NC(=O)[C@@H]2C[C@H](F)CN2C(=O)CNC(=O)[C@H](Cc2ccc(C(=O)O)cc2)NC(=O)[C@H](Cc2ccncc2)NC(=O)[C@H](Cc2ccc(-c3ccc(C(=O)O)cc3)cc2)NC(=O)[C@H]2C[C@@H](Cc3ccncc3)CN2C(=O)CNC(=O)[C@H](CCN)NC(=O)[C@H](CCC(N)=O)NC(=O)[C@H](CC2CCOCC2)NC(=O)C(C)(C)NC(=O)[C@H](Cc2c[nH]c3ccccc23)NC(=O)[C@H](CO)NC(=O)C(C)(C)NC1=O` [Example 211] (cyclo([Bip(4'-COOH)][4Pal][Phe(4-COOH)]G[Pro(cis-4-F)][Trp(βS-Me,4-F)][Aib]SW[Aib][Ala(4-THP)]Q[Dab]G[dPro(4R-(4-pyridylmethyl))])) and `C[C@@H](c1c[nH]c2cccc(F)c12)[C@@H]1NC(=O)[C@@H]2C[C@H](O)CN2C(=O)CNC(=O)[C@H](Cc2ccc(C(=O)O)cc2)NC(=O)[C@H](Cc2ccncc2)NC(=O)[C@H](Cc2ccc(-c3ccc(C(=O)O)cc3)cc2)NC(=O)[C@H]2C[C@@H](Cc3ccncc3)CN2C(=O)CNC(=O)[C@H](CCN)NC(=O)[C@H](CCC(N)=O)NC(=O)[C@H](CC2CCOCC2)NC(=O)C(C)(C)NC(=O)[C@H](Cc2c[nH]c3ccccc23)NC(=O)[C@H](CO)NC(=O)C(C)(C)NC1=O` [Example 212] (cyclo([Bip(4'-COOH)][4Pal][Phe(4-COOH)]G[cisHyp][Trp(βS-Me,4-F)][Aib]SW[Aib][Ala(4-THP)]Q[Dab]G[dPro(4R-(4-pyridylmethyl))])) are within 0.2 log units of each other in pIC50: 10.72 for the first, 10.54 for the second.

`C[C@@H](c1c[nH]c2cccc(F)c12)[C@@H]1NC(=O)[C@@H]2C[C@H](F)CN2C(=O)CNC(=O)[C@H](Cc2ccc(C(=O)O)cc2)NC(=O)[C@H](Cc2ccncc2)NC(=O)[C@H](Cc2ccc(-c3ccc(C(N)=O)cc3)cc2)NC(=O)[C@H]2C[C@@H](Cc3ccncc3)CN2C(=O)CNC(=O)[C@H](CCN)NC(=O)[C@H](CCC(N)=O)NC(=O)[C@H](CC2CCOCC2)NC(=O)[C@@](C)(CO)NC(=O)[C@H](Cc2c[nH]c3ccccc23)NC(=O)[C@H](CO)NC(=O)C(C)(C)NC1=O` [Example 215] (cyclo([Bip(4'-CONH2)][4Pal][Phe(4-COOH)]G[Pro(cis-4-F)][Trp(βS-Me,4-F)][Aib]SW[d(αMeS)][Ala(4-THP)]Q[Dab]G[dPro(4R-(4-pyridylmethyl))])) and `C[C@@H](c1c[nH]c2cccc(F)c12)[C@@H]1NC(=O)[C@@H]2C[C@H](F)CN2C(=O)CNC(=O)[C@H](Cc2ccc(C(=O)O)cc2)NC(=O)[C@H](CC23CC(C2)C3)NC(=O)[C@H](Cc2ccc(-c3ccc(C(N)=O)cc3)cc2)NC(=O)[C@H]2[C@@H](Cc3ccc(F)cc3)CCN2C(=O)CNC(=O)[C@H](CCN)NC(=O)[C@H](CCC(N)=O)NC(=O)[C@H](CC2CCOCC2)NC(=O)[C@@](C)(CO)NC(=O)[C@H](Cc2c[nH]c3ccccc23)NC(=O)[C@H](CO)NC(=O)C(C)(C)NC1=O` [Example 216] (cyclo([Bip(4'-CONH2)][Ala(1-bicyclo(1.1.1)pentyl)][Phe(4-COOH)]G[Pro(cis-4-F)][Trp(βS-Me,4-F)][Aib]SW[d(αMeS)][Ala(4-THP)]Q[Dab]G[dPro(3S-(4-F-Bn))])) are within 0.2 log units of each other in pIC50: 11.00 for the first, 11.10 for the second.

`CC(=O)NCCOc1ccc(C[C@@H]2NC(=O)[C@H]3C[C@@H](Cc4ccncc4)CN3C(=O)CNC(=O)[C@H](CCN)N(C)C(=O)[C@H](CCC(N)=O)NC(=O)[C@H](Cc3cncnc3)NC(=O)C(C)(C)NC(=O)[C@H](Cc3c[nH]c4ccccc34)NC(=O)[C@H](CO)NC(=O)C(C)(C)NC(=O)[C@H]([C@@H](C)c3c[nH]c4cccc(F)c34)NC(=O)[C@@H]3C[C@H](F)CN3C(=O)CNC(=O)[C@H](Cc3ccc(C(N)=O)cc3)NC(=O)[C@H](Cc3ccncc3)NC2=O)cc1` [Example 218] (cyclo([4Pal][Phe(4-CONH2)]G[Pro(cis-4-F)][Trp(βS-Me,4-F)][Aib]SW[Aib][Ala(pyrimidin-5-yl)]Q[NMeDab]G[dPro(4R-(4-pyridylmethyl))][AEF](Ac))) and `COC[C@@]1(C)NC(=O)[C@H](Cc2c[nH]c3ccccc23)NC(=O)[C@H](CO)NC(=O)C(C)(C)NC(=O)[C@H]([C@@H](C)c2c[nH]c3cccc(F)c23)NC(=O)[C@@H]2C[C@H](F)CN2C(=O)CNC(=O)[C@H](Cc2ccc(C(=O)O)cc2)NC(=O)[C@H](Cc2ccncc2)NC(=O)[C@H](Cc2ccc(-c3ccc(C(=O)O)cc3)cc2)NC(=O)[C@H]2[C@@H](Cc3ccncc3)CCN2C(=O)CNC(=O)[C@H](CCN)NC(=O)[C@H](CCC(N)=O)NC(=O)[C@H](Cc2cncnc2)NC1=O` [Example 224] (cyclo([Bip(4'-COOH)][4Pal][Phe(4-COOH)]G[Pro(cis-4-F)][Trp(βS-Me,4-F)][Aib]SW[d(αMeS)](Me)[Ala(pyrimidin-5-yl)]Q[Dab]G[X4])) are within 0.2 log units of each other in pIC50: 10.44 for the first, 10.52 for the second.

`C[C@@H](c1c[nH]c2cccc(F)c12)[C@@H]1NC(=O)[C@@H]2C[C@H](F)CN2C(=O)CNC(=O)[C@H](Cc2ccc(C(=O)O)cc2)NC(=O)[C@H](Cc2ccncc2)NC(=O)[C@H](Cc2ccc(-c3ccc(C(=O)O)cc3)cc2)NC(=O)[C@H]2[C@@H](Cc3ccncc3)CCN2C(=O)CNC(=O)[C@H](CCN)NC(=O)[C@H](CCC(N)=O)NC(=O)[C@H](CCc2ccc(O)cc2)NC(=O)[C@@](C)(CC(=O)O)NC(=O)[C@H](Cc2c[nH]c3ccccc23)NC(=O)[C@H](CO)NC(=O)C(C)(C)NC1=O` [Example 219] (cyclo([Bip(4'-COOH)][4Pal][Phe(4-COOH)]G[Pro(cis-4-F)][Trp(βS-Me,4-F)][Aib]SW[d(αMeD)][hTyr]Q[Dab]G[X4])) and `C[C@@H](c1c[nH]c2cccc(F)c12)[C@@H]1NC(=O)[C@@H]2C[C@H](F)CN2C(=O)CNC(=O)[C@H](Cc2ccc(C(=O)O)cc2)NC(=O)[C@H](Cc2ccncc2)NC(=O)[C@H](Cc2ccc(-c3ccc(C(=O)O)cc3)cc2)NC(=O)[C@H]2[C@@H](Cc3ccncc3)CCN2C(=O)CNC(=O)[C@H](CCN)NC(=O)[C@H](CCC(N)=O)NC(=O)[C@H](CCc2ccccc2)NC(=O)[C@@](C)(CC(=O)O)NC(=O)[C@H](Cc2c[nH]c3ccccc23)NC(=O)[C@H](CO)NC(=O)C(C)(C)NC1=O` [Example 221] (cyclo([Bip(4'-COOH)][4Pal][Phe(4-COOH)]G[Pro(cis-4-F)][Trp(βS-Me,4-F)][Aib]SW[d(αMeD)][hPhe]Q[Dab]G[X4])) are within 0.2 log units of each other in pIC50: 10.74 for the first, 10.70 for the second.

First: C[C@@H](c1c[nH]c2cccc(F)c12)[C@@H]1NC(=O)[C@@H]2C[C@H](F)CN2C(=O)CNC(=O)[C@H](Cc2ccc(C(=O)O)cc2)NC(=O)[C@H](Cc2ccncc2)NC(=O)[C@H](Cc2ccc(-c3ccc(C(=O)O)cc3)cc2)NC(=O)[C@H]2[C@@H](Cc3ccncc3)CCN2C(=O)CNC(=O)[C@H](CCN)NC(=O)[C@H](CCC(N)=O)NC(=O)[C@H](CCc2ccc(O)cc2)NC(=O)C(C)(C)NC(=O)[C@H](Cc2c[nH]c3ccccc23)NC(=O)[C@H](CO)NC(=O)C(C)(C)NC1=O [Example 220] (cyclo([Bip(4'-COOH)][4Pal][Phe(4-COOH)]G[Pro(cis-4-F)][Trp(βS-Me,4-F)][Aib]SW[Aib][hTyr]Q[Dab]G[X4]))
Second: C[C@@H](c1c[nH]c2cccc(F)c12)[C@@H]1NC(=O)[C@@H]2C[C@H](F)CN2C(=O)CNC(=O)[C@H](Cc2ccc(C(=O)O)cc2)NC(=O)[C@H](Cc2ccncc2)NC(=O)[C@H](Cc2ccc(-c3ccc(C(=O)O)cc3)cc2)NC(=O)[C@H]2[C@@H](Cc3ccncc3)CCN2C(=O)CNC(=O)[C@H](CCN)NC(=O)[C@H](CCC(N)=O)NC(=O)[C@H](CCc2ccncc2)NC(=O)[C@@](C)(CC(=O)O)NC(=O)[C@H](Cc2c[nH]c3ccccc23)NC(=O)[C@H](CO)NC(=O)C(C)(C)NC1=O [Example 222] (cyclo([Bip(4'-COOH)][4Pal][Phe(4-COOH)]G[Pro(cis-4-F)][Trp(βS-Me,4-F)][Aib]SW[d(αMeD)][h4Pal]Q[Dab]G[X4]))
The pIC50 of the first is 0.29 log units lower: 10.41 for the first, 10.70 for the second.

For `C[C@@H](c1c[nH]c2cccc(F)c12)[C@@H]1NC(=O)[C@@H]2C[C@H](F)CN2C(=O)CNC(=O)[C@H](Cc2ccc(C(=O)O)cc2)NC(=O)[C@H](Cc2ccncc2)NC(=O)[C@H](Cc2ccc(-c3ccc(C(=O)O)cc3)cc2)NC(=O)[C@H]2[C@@H](Cc3ccncc3)CCN2C(=O)CNC(=O)[C@H](CNC(N)=O)NC(=O)[C@H](CCC(N)=O)NC(=O)[C@H](CCc2ccncc2)NC(=O)[C@@](C)(CC(=O)O)NC(=O)[C@H](Cc2c[nH]c3ccccc23)NC(=O)[C@H](CO)NC(=O)C(C)(C)NC1=O` [Example 223] (cyclo([Bip(4'-COOH)][4Pal][Phe(4-COOH)]G[Pro(cis-4-F)][Trp(βS-Me,4-F)][Aib]SW[d(αMeD)][h4Pal]Q[Dap(CONH2)]G[X4])), the pIC50 was 10.57.
